Several values for one entry are separate records, joined by “and”; a condition that tells them apart may be missing. Equal values may be shown once. Read-outs that look alike come from different tables or passages of the source. One block for each molecule: values may come before it.
Tests used:
[1] = Lactone ring stability in whole human blood by HPLC; details: for Percent Lactone in Human Blood after 3 Hours of Incubation: pH 7.4, 37° C. (Table 4)
Method: All experiments were conducted at pH 7.4 and 37° C.
(§1) HPLC solvents were from Fisher Scientific.

[2] = PBS solution containing HSA; cited from earlier work
[3] = cited from earlier work
[4] = Lactone ring stability in mouse blood by HPLC; details: for Ratio of Lactone Level Mouse/Human: blood, 3 hours of incubation; for Percent Lactone in Mouse Blood after 3 Hours of Incubation: pH 7.4, 37° C.
Method: The hydrolysis kinetics of camptothecins in the presence of different blood components were determined by a quantitative C18 reversed-phase high-performance liquid chromatography (HPLC) assay modified from methodologies described previously in the literature cited above. The preparation of whole blood and fractionated blood samples was carried out as described previously. Crystallized HSA of high purity (>97%) from Sigma Chemical (St. Louis, Mo.) was used. HSA stock solutions were prepared in PBS buffer with a final pH of 7.40±0.05. HSA concentrations were determined by UV absorbance at 278 nm using an extinction coefficient of 39,800 M^−1 cm^−1 (Porter, 1992). All other agents were reagent grade and were used without further purification. High purity water provided by a Milli-Q UV PLUS purification system (Bedford, Mass.) was utilized in all experiments. HPLC solvents were from Fisher Scientific. Human plasma and red blood cells were obtained from Central Kentucky Blood Center. […] Blood from mice was collected in heparinized tubes and stored at 5-10° C. until use.
HPLC assays were performed either on a Waters Alliance 2690 HPLC system equipped with a temperature-controlled autosampler and Waters 474 scanning fluorescence detector. A second HPLC system was composed of a Waters HPLC system composed of 501 HPLC pumps, 717 Plus temperature-controlled autosampler and 470 scanning fluorescence detector. The HPLC assay procedures used for the homosilatecans are summarized below. Solvent A consisted of acetonitrile and Solvent B was 2% triethylammonium acetate, pH 5.5, with a flow rate of 1 ml/min. For DB-38 an isocratic elution was used: 33% Solvent A; 67% Solvent B; λex:345 nm and λem:518 nm. For DB-81 an isocratic elution was used: 56% Solvent A; 44% Solvent B; and λex:375 nm and λem:444 nm. For DB-90 an isocratic elution was used: 41% Solvent A; 59% Solvent B; λex:412 nm and λem:526 nm. For DB-91 an isocratic elution of 42% Solvent A, 58% Solvent B, and λex:392 nm and λem:562 nm.
To determine drug stability in whole blood, whole blood was incubated at 37° C. for 30 min and pH determined. Blood pH was adjusted to 7.4+/−0.5 using either 0.1 M KOH or 0.1 M HCl. Blood samples were incubated at 37° C. for 30 min and pH remeasured to ensure that it is within the range before an individual assay was started. Aliquots of blood (2 ml each) were removed and placed in three disposable glass test tubes and the tubes were incubated at 37° C. […] Incubation at 37° C. was continued and 150 μl aliquots were removed at different time points and added to 600 μl of cold methanol (−20° C.) in an eppendorf tube. The tube was then vortexed for 10 sec and centrifuged in a table top microcentrifuge at 8000 rpm for 45 sec. The Supernatant was removed and placed in an autosampler vial and the vial quickly added to the autosampler maintained at 4° C. The sample was analyzed immediately on the HPLC set-up. The data analysis was as described for the drug in PBS only samples.

[5] = whole human blood; cited from earlier work
[6] = Fluorescence anisotropy titration, equilibrium binding to DMPC small unilamellar vesicles; type: physicochemical; details: electroneutral DMPC vesicles, PBS pH 7.4, 37° C.; K values subject to 10% uncertainty
Method: (§2) As a consequence of the brilliant fluorescence emissions from the newly synthesized homosilatecans (a summary of the spectral parameters can be found in Table 1), the lipid bilayer adsorption isotherms summarized in FIG. 4 were relatively free from any background signal. The method of fluorescence anisotropy titration was used to construct the adsorption isotherms. The experiments were conducted at drug concentrations of 1 μM in PBS buffer (37° C.). […] Because of the potential of the lactone ring of the homosilatecans and camptothecins to hydrolyze in PBS, anisotropy values at each lipid concentration were determined immediately (approx. 1 min.) following the addition of the lactone form of each agent to the liposome suspension as to minimize any possibility of conversion to the carboxylate form. Using drug concentrations of 1 μM and long pass filters to isolate emitted light from background signal (that is, scattered exciting light and extraneous fluorescence signal resulting from the possible presence of impurities), signal levels from drugs dissolved in PBS buffer were typically 99.97% in the absence of membrane and greater than 98% in the presence of membrane. Adsorption isotherms were used to determine overall association constants for the homosilatecan, silatecan, and camptothecin drugs. Overall association constants are defined as: K=[AB]/[AF][L] where [AB] represents the concentration of bound drug, [AF] represents the concentration of free drug, and [L] represents the total lipid concentration in the vesicle suspension. This equation is valid when the concentration of free lipid is approximately equal to the concentration of total lipid (that is, the concentration of free lipid is in significant excess over the concentration of bound drug). Provided this condition is satisfied, K may be determined from the inverse of the slope of a double reciprocal plot. In such a double reciprocal plot, 1/fraction of the total drug bound is plotted vs. 1/lipid concentration, with a y-intercept value of 1 (for a system displaying binding site homogeneity). Such double-reciprocal plots for the associations of the new homosilatecans analogs (both lactone and carboxylate forms) with DMPC and DMPG small unilamellar vesicle (SUV) preparations were linear with good correlation coefficients.
(§3) The studies summarized in Table 2 examine the structural basis of homosilatecan associations for lipid bilayers. Two types of membranes were included in these studies which were conducted under near physiological conditions of pH and temperature; these membranes include fluid-phase and electroneutral L-α-dimyristoylphosphatidyl-choline (DMPC); and fluid-phase and negatively-charged L-α-dimyristoylphosphatidylglycerol (DMPG). DMPC and DMPG have identical chain length but the charges on their head groups differ.
(§4) In the studies of Table 2, binding isotherms were constructed using the method of fluorescence anisotropy titration as discussed above, and K values were determined from the slopes of the double-reciprocal plots. The K values are subject to 10% uncertainty. One of the most striking features of the data contained in Table 2 is the strong modulation which can be achieved through the creation of A,B,E-ring modified camptothecins (for example, the homosilatecans known as DB-38, DB-90, and DB-91) or B,E-ring modified camptothecins (for example, the homosilatecan known as DB-81). Homosilatecans containing either a sole substitution at the 7 position or dual substitution at the 7 and 10 positions have been created and found to display very high lipophilicities. Included in Table 2 are camptothecin compounds (topotecan and camptothecin). For DB-81, the lipophilicity for DMPC membranes relative to corresponding value for topotecan increases over 1,400-fold. Data for these agents were included to show the highly lipophilic nature of the new homocamptothecins relative to compounds such as topotecan and camptothecin. […]

[7] = Fluorescence anisotropy titration, equilibrium binding to DMPG small unilamellar vesicles; type: physicochemical; details: negatively charged DMPG vesicles, PBS pH 7.4, 37° C.; K values subject to 10% uncertainty
Method: as §2, §3, §4

[8] = Lactone ring stability in PBS by HPLC; type: physicochemical; details: PBS pH 7.4, 3 hours, 37° C., 1 μM
Method: FIG. 12 contrasts the improved stabilities of four novel homosilatecans of the present invention with their corresponding silatecan structure containing the α-hydroxylactone functionality. All the experiments of FIG. 12 were conducted in PBS at 37° C.
as §1
To determine the stabilities of homosilatecans in PBS, an aliquot of each of the homosilatecans in DMSO was added to phosphate buffered saline (PBS), pH 7.4 in a HPLC autosampler vial maintained at 37° C. in a water bath to result in final drug concentration of 1 μM. The drug-containing vial was quickly transferred to the autosampler maintained at 37° C. and aliquots analyzed at various time points. All the determinations were done in triplicate. The data was collected and analyzed using Waters Millenium software. The fraction of lactone was calculated using the peak area of lactone and carboxylate peak and using the lactone/carboxylate ratio.

[9] = test system: MDA-MB-435 tumorigenic metastatic human breast cancer cells; experiment: Cytotoxicity, sulphorrhodamine B (SRB) assay; type: cell-based; details: MDA-MB-435, 72 hr exposure, SRB assay, without HSA, read-out: IC50 (w/o HSA)
Method: Cytotoxicity measurements were conducted using MDA-MB-435 tumorigenic human breast cancer cells. The cells were exposed to a range of drug concentrations for 72 hr exposure periods and then viability was assessed using a sulphorrhodamine B (SRB) assay. The SRB measures the total protein levels in the living cells. Proteins from dead cells are lysed and removed in the washing step before TCA fixation. However, it is possible that cells in the early stage of death still have their membrane integrity and therefore retain the protein contents inside. As a result, the optical density at 490 nm can sometimes be overestimated and the cytotoxicity underestimated. […] The SRB assay is now a well regarded assay and was recently approved by NCl as a standard assay for anticancer drug screening. […] Each IC50 value represents the average of three separate trials with each dosage level studied in triplicate.

[10] = biological target: T1, human serum albumin (HSA) (Homo sapiens, UniProt P02768); experiment: Binding of camptothecin lactone and carboxylate forms to human serum albumin, frequency-domain fluorescence lifetime spectroscopy
[11] = previously observed, Burke et al. 1993; cited from earlier work
[12] = biological target: T1, human serum albumin (HSA); details: PBS pH 7.4; cited from earlier work
[13] = whole human blood, 3 hours incubation, pH 7.4, 37° C., 1 μM

T1 sequence (P02768 25-609): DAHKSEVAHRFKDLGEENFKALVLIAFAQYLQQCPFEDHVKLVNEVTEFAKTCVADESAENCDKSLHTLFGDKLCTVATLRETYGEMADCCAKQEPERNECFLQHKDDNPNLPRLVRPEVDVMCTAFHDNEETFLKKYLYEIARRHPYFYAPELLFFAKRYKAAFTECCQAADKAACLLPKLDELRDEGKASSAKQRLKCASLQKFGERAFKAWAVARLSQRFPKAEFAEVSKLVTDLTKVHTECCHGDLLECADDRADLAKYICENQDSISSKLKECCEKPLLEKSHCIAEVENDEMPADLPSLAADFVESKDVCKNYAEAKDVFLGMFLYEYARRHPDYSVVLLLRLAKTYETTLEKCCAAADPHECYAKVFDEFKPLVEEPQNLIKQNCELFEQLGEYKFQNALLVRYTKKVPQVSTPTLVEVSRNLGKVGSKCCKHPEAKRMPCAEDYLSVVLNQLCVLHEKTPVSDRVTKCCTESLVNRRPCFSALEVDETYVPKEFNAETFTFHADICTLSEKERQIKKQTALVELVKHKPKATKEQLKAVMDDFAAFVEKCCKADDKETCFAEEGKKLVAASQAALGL

SMILES: CC[C@@]1(O)C(=O)OCc2c1cc1n(c2=O)Cc2cc3c(N)cccc3nc2-1 [9-Aminocamptothecin, 9-aminocamptothecin]
Percent Lactone in Human Blood after 3 Hours of Incubation [1]: 0.4% | % Lactone [1, 13]: approx. 0.3% | extent of hydrolysis [2]: > 99% | percentage of lactone at equilibrium ([3]; human plasma, pH 7.4, 37° C.): 0.2% | fraction converted to carboxylate ([3]; plasma): > 99.5% | Ratio of Lactone Level Mouse/Human [4]: 100 | Percent Lactone in Mouse Blood after 3 Hours of Incubation [4]: 38%

SMILES: CCc1c2c(nc3ccc(OC(=O)N4CCC(N5CCCCC5)CC4)cc13)-c1cc3c(c(=O)n1C2)COC(=O)[C@]3(O)CC [CPT-11]
lactone level at equilibrium relative to 9-aminocamptothecin ([1]; whole human blood): approximately 40 fold | % Lactone [1, 13]: approx. 21.0% | percentage of lactone at equilibrium [5]: 21.0%

SMILES: CC[C@@]1(O)C(=O)OCc2c1cc1n(c2=O)Cc2cc3ccccc3nc2-1 [Camptothecin]
KDMPC overall association constant [6]: 100 M⁻¹ | KDMPG overall association constant [7]: 100 M⁻¹ | % Lactone [8]: approximately 12% | Percent Lactone in Human Blood after 3 Hours of Incubation [1]: 7% | lactone level at equilibrium relative to 9-aminocamptothecin ([1]; whole human blood): approximately 10 fold | % Lactone [1, 13]: approx. 6% | IC50 [9]: 12 ± 4 nM | HSA binding preference for the carboxylate relative to the lactone [10]: 200 fold | K, HSA binding of the carboxylate form ([10]; carboxylate form): 1.2e+06 M⁻¹ | K, HSA binding of the lactone form ([10]; lactone form): ≈ 5.5×10^3 M^−1 | decrease in affinity for DMPC upon opening of the lactone ring [11]: 3 fold | HSA binding affinity of carboxylate form relative to lactone form [12]: 200 fold and > 100 fold | percentage of lactone at equilibrium ([3]; human plasma, pH 7.4, 37° C.): 0.2% | t1/2 of lactone ring opening ([3]; human plasma, pH 7.4, 37° C.): 11 min | t1/2 of lactone ring opening [5]: 22 min | Ratio of Lactone Level Mouse/Human [4]: 3 | Percent Lactone in Mouse Blood after 3 Hours of Incubation [4]: 20%

SMILES: CC[C@@]1(O)C(=O)OCc2c1cc1n(c2=O)Cc2c-1nc1ccc(O)cc1c2[Si](C)(C)C(C)(C)C [DB-67, reference compound]
KDMPC overall association constant [6]: 2,500 M^−1

SMILES: CCC(O)(CC(=O)O)c1cc2n(c(=O)c1CO)Cc1c-2nc2ccc(N)cc2c1[Si](C)(C)C(C)(C)C (stereo not drawn) [DB-90 carboxylate form, carboxylate form of 7-t-butyl-dimethylsilyl-10-aminohomocamptothecin]
KDMPC overall association constant [6]: 770 M⁻¹ | KDMPG overall association constant [7]: 80 M⁻¹

SMILES: CCC(O)(CC(=O)O)c1cc2n(c(=O)c1CO)Cc1c-2nc2ccc(O)cc2c1[Si](C)(C)C(C)(C)C (stereo not drawn) [DB-91 carboxylate form, ring-opened or carboxylate form of 7-t-butyldimethylsilyl-10-hydroxyhomocamptothecin]
KDMPC overall association constant [6]: 700 M⁻¹ | KDMPG overall association constant [7]: 100 M⁻¹

SMILES: CCc1c2c(nc3ccc(O)cc13)-c1cc3c(c(=O)n1C2)COC(=O)[C@]3(O)CC [SN-38, 7-ethyl-10-hydroxycamptothecin]
KDMPC overall association constant [6]: 300 M⁻¹ | lactone level at equilibrium relative to 9-aminocamptothecin ([1]; whole human blood): approximately 40 fold | % Lactone [1, 13]: approx. 30% | percentage of lactone at equilibrium [5]: 19.5%

KDMPC overall association constant [6]: 10 M⁻¹ | KDMPG overall association constant [7]: 50 M⁻¹ | % Lactone [8]: approximately 12% | lactone level at equilibrium relative to 9-aminocamptothecin ([1]; male, human, 1 μM, pH 7.4): 20 fold | % Lactone ([1]; male, human, 3 h, 1 μM, pH 7.4): approx. 15%
SMILES: CC[C@@]1(O)C(=O)OCc2c1cc1n(c2=O)Cc2cc3c(CN(C)C)c(O)ccc3nc2-1 [Topotecan, reference compound]
percentage of lactone at equilibrium [5]: 11.9%
